Oligonucleotides are written 5' to 3', each unit as a sugar letter and its base; * is a phosphorothioate linkage, no mark a phosphodiester; rarer units and linkages stand in square brackets, end groups in braces. Plain capitals give the bases only. d = 2'-deoxy (DNA); r = 2'-OH (RNA)
Also: test concentration or dose not given here.

The target of this data set is MRFAP1. Kind of data set: reporter assay of Huesken 2005. The settings on record: siRNA.
Consider “sense rUrUrUrGrGrArArArArUrGrCrGrCrUrCrArCrAdTdT / antisense rUrGrUrGrArGrCrGrCrArUrUrUrUrCrCrArArAdTdC”, for which the normalised inhibition (eCFP-eYFP dual reporter) stood at 47.6%. Regarding “sense rGrArGrArUrGrCrUrGrGrUrGrCrArGrCrUrCrGdTdT / antisense rCrGrArGrCrUrGrCrArCrCrArGrCrArUrCrUrCdGdG”, the normalised inhibition (eCFP-eYFP dual reporter) was 32.2%. On to “sense rGrArArArGrArUrCrCrUrUrGrCrArArUrArCrCdTdT / antisense rGrGrUrArUrUrGrCrArArGrGrArUrCrUrUrUrCdAdT”, for which the normalised inhibition (eCFP-eYFP dual reporter) is 82.6%.

Take “sense rCrArArArArCrCrCrUrUrArCrCrArUrGrUrUrGdTdT / antisense rCrArArCrArUrGrGrUrArArGrGrGrUrUrUrUrGdAdC”: the normalised inhibition (eCFP-eYFP dual reporter) worked out at 70.3%.

For “sense rCrUrUrGrUrUrCrGrUrCrUrGrUrArCrArArGrUdTdT / antisense rArCrUrUrGrUrArCrArGrArCrGrArArCrArArGdAdC”, the normalised inhibition (eCFP-eYFP dual reporter) was determined as 54.3%.

Turning to “sense rArCrUrCrGrGrCrCrCrGrArGrCrUrCrGrGrUrCdTdT / antisense rGrArCrCrGrArGrCrUrCrGrGrGrCrCrGrArGrUdCdT”, the normalised inhibition (eCFP-eYFP dual reporter) turned out to be 61.5%.

With “sense rCrArUrArUrGrUrArGrUrCrArArGrCrUrArUrAdTdT / antisense rUrArUrArGrCrUrUrGrArCrUrArCrArUrArUrGdAdA”, the normalised inhibition (eCFP-eYFP dual reporter) was found to be 101%. Turning to “sense rGrUrGrUrGrUrUrCrCrUrGrArArUrUrUrGrArGdTdT / antisense rCrUrCrArArArUrUrCrArGrGrArArCrArCrArCdCdA”, the normalised inhibition (eCFP-eYFP dual reporter) worked out at 32.7%. For the substance “sense rGrArArUrArArCrGrUrUrCrArUrUrCrCrUrGrGdTdT / antisense rCrCrArGrGrArArUrGrArArCrGrUrUrArUrUrCdAdC”, the normalised inhibition (eCFP-eYFP dual reporter) is 66.8%. Then “sense rCrCrCrCrUrCrUrGrUrCrUrUrCrArCrUrCrUrGdTdT / antisense rCrArGrArGrUrGrArArGrArCrArGrArGrGrGrGdAdA”, with 87.5%; and “sense rGrCrUrCrUrUrUrCrUrUrGrGrGrUrGrArCrCrUdTdT / antisense rArGrGrUrCrArCrCrCrArArGrArArArGrArGrCdAdA”, with 95.8%. “sense rGrArArCrArGrCrGrGrCrGrGrArArGrUrUrUrUdTdT / antisense rArArArArCrUrUrCrCrGrCrCrGrCrUrGrUrUrCdCdA”: the normalised inhibition (eCFP-eYFP dual reporter) worked out at 84.3%.

As for “sense rUrCrUrUrGrGrGrUrGrArCrCrUrGrArUrArGrCdTdT / antisense rGrCrUrArUrCrArGrGrUrCrArCrCrCrArArGrAdAdA”, the normalised inhibition (eCFP-eYFP dual reporter) was 45.6%. “sense rCrUrArGrGrArCrUrGrArUrGrArCrCrUrGrGrGdTdT / antisense rCrCrCrArGrGrUrCrArUrCrArGrUrCrCrUrArGdCdC”: the normalised inhibition (eCFP-eYFP dual reporter) is 63.1%.

With “sense rUrCrUrUrCrGrUrGrArGrCrCrGrUrCrCrGrCrGdTdT / antisense rCrGrCrGrGrArCrGrGrCrUrCrArCrGrArArGrAdCdT”, the normalised inhibition (eCFP-eYFP dual reporter) stood at 35.4%. As to “sense rArArCrUrUrUrGrGrGrUrCrCrCrUrGrUrGrArCdTdT / antisense rGrUrCrArCrArGrGrGrArCrCrCrArArArGrUrUdCdA”, the normalised inhibition (eCFP-eYFP dual reporter) was found to be 26.8%. Turning to “sense rUrCrGrUrGrCrGrGrCrGrGrArUrArGrArGrArAdTdT / antisense rUrUrCrUrCrUrArUrCrCrGrCrCrGrCrArCrGrAdGdC”, the normalised inhibition (eCFP-eYFP dual reporter) was determined as 87.2%.

With “sense rArCrArArGrCrArArArGrCrArGrCrGrGrArGrAdTdT / antisense rUrCrUrCrCrGrCrUrGrCrUrUrUrGrCrUrUrGrUdCdT”, the normalised inhibition (eCFP-eYFP dual reporter) came to 62.6%.

For “sense rGrUrGrGrGrArGrArUrGrGrArCrArArUrArUrGdTdT / antisense rCrArUrArUrUrGrUrCrCrArUrCrUrCrCrCrArCdAdG”, the normalised inhibition (eCFP-eYFP dual reporter) was found to be 79.7%. Regarding “sense rGrGrArCrArGrCrCrUrArArCrUrCrArUrUrUrUdTdT / antisense rArArArArUrGrArGrUrUrArGrGrCrUrGrUrCrCdCdA”, the normalised inhibition (eCFP-eYFP dual reporter) was found to be 62.8%. Then “sense rUrCrArUrUrCrCrUrGrGrCrUrUrUrGrGrUrGrUdTdT / antisense rArCrArCrCrArArArGrCrCrArGrGrArArUrGrAdAdC”, with 52.6%; and “sense rCrArArArGrGrArGrGrArGrArGrArUrGrUrArUdTdT / antisense rArUrArCrArUrCrUrCrUrCrCrUrCrCrUrUrUrGdGdT”, with 99.2%; and “sense rUrUrUrGrArGrGrUrCrArArArArCrCrCrUrUrAdTdT / antisense rUrArArGrGrGrUrUrUrUrGrArCrCrUrCrArArAdTdG”, with 82.6%.

As for “sense rCrArArGrUrUrGrGrUrArUrCrCrCrCrArUrArUdTdT / antisense rArUrArUrGrGrGrGrArUrArCrCrArArCrUrUrGdTdA”, the normalised inhibition (eCFP-eYFP dual reporter) was found to be 62.5%.

For the substance “sense rArGrCrUrCrGrUrGrCrGrGrCrGrGrArUrArGrAdTdT / antisense rUrCrUrArUrCrCrGrCrCrGrCrArCrGrArGrCrUdGdC”, the normalised inhibition (eCFP-eYFP dual reporter) was determined as 79.7%. Regarding “sense rCrUrArUrUrArUrArArCrCrUrGrCrCrUrGrArUdTdT / antisense rArUrCrArGrGrCrArGrGrUrUrArUrArArUrArGdAdT”, the normalised inhibition (eCFP-eYFP dual reporter) worked out at 88%. For “sense rGrArGrGrArCrArUrCrGrCrGrUrCrGrCrUrGrAdTdT / antisense rUrCrArGrCrGrArCrGrCrGrArUrGrUrCrCrUrCdGdC”, the normalised inhibition (eCFP-eYFP dual reporter) was 77.9%.

For “sense rCrGrGrGrGrCrArArGrCrUrGrUrGrGrGrArGrAdTdT / antisense rUrCrUrCrCrCrArCrArGrCrUrUrGrCrCrCrCrGdGdT”, the normalised inhibition (eCFP-eYFP dual reporter) is 69.6%. As to “sense rCrCrGrArGrGrArGrGrUrGrGrArGrGrUrGrCrUdTdT / antisense rArGrCrArCrCrUrCrCrArCrCrUrCrCrUrCrGrGdGdC”, the normalised inhibition (eCFP-eYFP dual reporter) came to 58.9%.

As to “sense rUrArGrArArGrArGrGrArCrUrCrCrArUrGrCrAdTdT / antisense rUrGrCrArUrGrGrArGrUrCrCrUrCrUrUrCrUrAdGdA”, the normalised inhibition (eCFP-eYFP dual reporter) was 68.6%. Take “sense rArGrArGrGrCrCrUrCrUrGrArGrGrArGrArGrCdTdT / antisense rGrCrUrCrUrCrCrUrCrArGrArGrGrCrCrUrCrUdAdC”: the normalised inhibition (eCFP-eYFP dual reporter) was determined as 69.3%. In the case of “sense rUrCrCrUrGrGrCrUrUrUrGrGrUrGrUrGrUrUrCdTdT / antisense rGrArArCrArCrArCrCrArArArGrCrCrArGrGrAdAdT” it was 66.9%.

Regarding “sense rGrGrArArArArUrGrCrGrCrUrCrArCrArUrArCdTdT / antisense rGrUrArUrGrUrGrArGrCrGrCrArUrUrUrUrCrCdAdA”, the normalised inhibition (eCFP-eYFP dual reporter) is 86.7%. “sense rArArArUrArArCrUrUrUrGrArUrUrUrGrGrArAdTdT / antisense rUrUrCrCrArArArUrCrArArArGrUrUrArUrUrUdTdC”: the normalised inhibition (eCFP-eYFP dual reporter) stood at 70.2%.

Take “sense rCrUrGrUrGrGrGrArGrArUrGrGrArCrArArUrAdTdT / antisense rUrArUrUrGrUrCrCrArUrCrUrCrCrCrArCrArGdCdT”: the normalised inhibition (eCFP-eYFP dual reporter) was 82.9%. For “sense rGrUrUrCrCrUrGrArArUrUrUrGrArGrGrUrGrCdTdT / antisense rGrCrArCrCrUrCrArArArUrUrCrArGrGrArArCdAdC”, the normalised inhibition (eCFP-eYFP dual reporter) stood at 23.1%. Turning to “sense rArGrUrGrArUrGrGrCrGrArUrUrGrGrCrUrGrAdTdT / antisense rUrCrArGrCrCrArArUrCrGrCrCrArUrCrArCrUdCdA”, the normalised inhibition (eCFP-eYFP dual reporter) came to 85.8%. In the case of “sense rUrGrCrArGrCrArArUrGrGrCrArGrArArGrArAdTdT / antisense rUrUrCrUrUrCrUrGrCrCrArUrUrGrCrUrGrCrAdTdG” it was 72.9%; in that of “sense rGrUrGrArGrCrCrGrUrCrCrGrCrGrGrUrUrUrCdTdT / antisense rGrArArArCrCrGrCrGrGrArCrGrGrCrUrCrArCdGdA”, 72.2%. Turning to “sense rCrUrUrGrCrArArUrArCrCrCrUrUrUrGrUrGrUdTdT / antisense rArCrArCrArArArGrGrGrUrArUrUrGrCrArArGdGdA”, the normalised inhibition (eCFP-eYFP dual reporter) turned out to be 74.1%. In the case of “sense rUrGrUrUrCrUrCrArCrUrGrArCrArCrUrArCrGdTdT / antisense rCrGrUrArGrUrGrUrCrArGrUrGrArGrArArCrAdGdA”, the normalised inhibition (eCFP-eYFP dual reporter) is 68.9%.

Consider “sense rGrGrArGrGrArUrUrGrUrArUrUrGrUrUrUrCrUdTdT / antisense rArGrArArArCrArArUrArCrArArUrCrCrUrCrCdGdA”, for which the normalised inhibition (eCFP-eYFP dual reporter) is 105%. As to “sense rUrGrGrArGrGrUrGrCrUrGrGrArGrCrCrGrGrAdTdT / antisense rUrCrCrGrGrCrUrCrCrArGrCrArCrCrUrCrCrAdCdC”, the normalised inhibition (eCFP-eYFP dual reporter) was 69.1%. In the case of “sense rUrGrGrArCrArArUrArUrGrCrUrGrArUrCrCrAdTdT / antisense rUrGrGrArUrCrArGrCrArUrArUrUrGrUrCrCrAdTdC”, the normalised inhibition (eCFP-eYFP dual reporter) was 91.5%. “sense rArArGrGrUrUrCrArUrArUrGrUrArGrUrCrArAdTdT / antisense rUrUrGrArCrUrArCrArUrArUrGrArArCrCrUrUdGdA”: the normalised inhibition (eCFP-eYFP dual reporter) stood at 85.4%. Then “sense rUrUrGrGrCrUrGrArCrArUrGrArCrArCrCrCrUdTdT / antisense rArGrGrGrUrGrUrCrArUrGrUrCrArGrCrCrArAdTdC”, with 65.4%; and “sense rCrGrGrArCrGrCrGrCrGrCrCrCrGrUrGrCrGrCdTdT / antisense rGrCrGrCrArCrGrGrGrCrGrCrGrCrGrUrCrCrGdCdG”, with 19.7%. Regarding “sense rArArArArUrArArCrUrUrUrGrArUrUrUrGrGrAdTdT / antisense rUrCrCrArArArUrCrArArArGrUrUrArUrUrUrUdCdC”, the normalised inhibition (eCFP-eYFP dual reporter) is 69.9%. Take “sense rArUrGrGrCrGrArArGrArUrGrGrCrCrGrArGrAdTdT / antisense rUrCrUrCrGrGrCrCrArUrCrUrUrCrGrCrCrArUdCdT”: the normalised inhibition (eCFP-eYFP dual reporter) is 78.7%.

The values above are taken from the OligoGym collection.
